Test results as given in ChEMBL document CHEMBL5465560, “Selectivity Literature for EUbOPEN Chemogenomic Library” (2024).

Assays:
[1] = molecular target: T1, Activin receptor type-1B (Homo sapiens) (UniProt P36896); conditions: at 10 µM
T1 sequence (whole entry): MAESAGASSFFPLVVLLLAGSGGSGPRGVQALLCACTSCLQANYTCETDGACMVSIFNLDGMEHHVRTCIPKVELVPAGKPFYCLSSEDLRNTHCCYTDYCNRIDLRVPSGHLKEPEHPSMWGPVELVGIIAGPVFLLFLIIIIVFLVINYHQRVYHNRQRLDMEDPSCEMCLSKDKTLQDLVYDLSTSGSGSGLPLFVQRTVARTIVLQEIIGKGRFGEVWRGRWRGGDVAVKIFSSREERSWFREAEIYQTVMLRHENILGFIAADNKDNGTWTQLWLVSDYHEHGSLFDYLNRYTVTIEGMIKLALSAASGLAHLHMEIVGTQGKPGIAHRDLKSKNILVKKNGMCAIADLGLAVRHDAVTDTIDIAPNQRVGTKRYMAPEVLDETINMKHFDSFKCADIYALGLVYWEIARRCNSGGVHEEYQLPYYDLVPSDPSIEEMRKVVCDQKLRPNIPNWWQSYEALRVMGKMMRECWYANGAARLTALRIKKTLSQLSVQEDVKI

[2] = tested on: Mast/stem cell growth factor receptor Kit (Homo sapiens), P10721 [D816H]; conditions: at 10 µM
[3] = molecular target: Mitotic checkpoint serine/threonine-protein kinase BUB1 (Homo sapiens, UniProt O43683); test: Selectivity interaction (Ambit KINOMEscan and KiNATiv profiling in Jurkat cells) EUB0000090b BUB1; assay type: cell-based; conditions: at 1 µM
[4] = molecular target: Mitogen-activated protein kinase 14 (Homo sapiens, UniProt Q16539); test: Selectivity interaction (Kinase panel (Z-LYTE Assay)) EUB0001632a MAPK14; conditions: at 10 µM
[5] = molecular target: Serine/threonine-protein kinase Nek6 (Homo sapiens) (UniProt Q9HC98); test: Selectivity interaction (Kinase panel (Z-LYTE Assay)) EUB0001632a NEK6; conditions: at 10 µM
[6] = molecular target: Progesterone receptor (Homo sapiens) (UniProt P06401); test: Selectivity interaction (Eurofins CEREP Diversity Profile (receptors and ion channels)) EUB0000279b PGR; conditions: at 10 µM
[7] = molecular target: Ribosomal protein S6 kinase alpha-5 (Homo sapiens) (UniProt O75582); test: Selectivity interaction (KinomeScan (DiscoverX)) EUB0000229b RPS6KA5; conditions: at 10 µM
[8] = molecular target: T2, Casein kinase I isoform alpha-like (Homo sapiens) (UniProt Q8N752); test: Selectivity interaction (KinomeScan (DiscoverX)) EUB0001079a CSNK1A1L; conditions: at 1 µM
T2 sequence (whole entry): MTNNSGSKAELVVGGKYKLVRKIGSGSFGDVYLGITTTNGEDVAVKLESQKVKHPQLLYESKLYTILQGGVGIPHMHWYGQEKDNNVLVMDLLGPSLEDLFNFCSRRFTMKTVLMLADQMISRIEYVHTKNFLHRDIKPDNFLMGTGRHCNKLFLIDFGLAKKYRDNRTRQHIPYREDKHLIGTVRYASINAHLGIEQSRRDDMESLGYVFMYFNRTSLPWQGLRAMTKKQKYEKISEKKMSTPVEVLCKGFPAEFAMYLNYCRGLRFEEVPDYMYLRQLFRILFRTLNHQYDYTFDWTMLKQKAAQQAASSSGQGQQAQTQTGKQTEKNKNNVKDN

[9] = tested on: Epidermal growth factor receptor (Homo sapiens), P00533 [UNDEFINED MUTATION]; test: Selectivity interaction (KinomeScan (DiscoverX)) EUB0000045b EGFR; conditions: at 1 µM
[10] = molecular target: T3, Tyrosine-protein kinase JAK3 (Homo sapiens) (UniProt P52333); test: Selectivity interaction (KinomeScan (DiscoverX)) EUB0000618a JAK3; conditions: at 10 µM
T3 sequence (whole entry): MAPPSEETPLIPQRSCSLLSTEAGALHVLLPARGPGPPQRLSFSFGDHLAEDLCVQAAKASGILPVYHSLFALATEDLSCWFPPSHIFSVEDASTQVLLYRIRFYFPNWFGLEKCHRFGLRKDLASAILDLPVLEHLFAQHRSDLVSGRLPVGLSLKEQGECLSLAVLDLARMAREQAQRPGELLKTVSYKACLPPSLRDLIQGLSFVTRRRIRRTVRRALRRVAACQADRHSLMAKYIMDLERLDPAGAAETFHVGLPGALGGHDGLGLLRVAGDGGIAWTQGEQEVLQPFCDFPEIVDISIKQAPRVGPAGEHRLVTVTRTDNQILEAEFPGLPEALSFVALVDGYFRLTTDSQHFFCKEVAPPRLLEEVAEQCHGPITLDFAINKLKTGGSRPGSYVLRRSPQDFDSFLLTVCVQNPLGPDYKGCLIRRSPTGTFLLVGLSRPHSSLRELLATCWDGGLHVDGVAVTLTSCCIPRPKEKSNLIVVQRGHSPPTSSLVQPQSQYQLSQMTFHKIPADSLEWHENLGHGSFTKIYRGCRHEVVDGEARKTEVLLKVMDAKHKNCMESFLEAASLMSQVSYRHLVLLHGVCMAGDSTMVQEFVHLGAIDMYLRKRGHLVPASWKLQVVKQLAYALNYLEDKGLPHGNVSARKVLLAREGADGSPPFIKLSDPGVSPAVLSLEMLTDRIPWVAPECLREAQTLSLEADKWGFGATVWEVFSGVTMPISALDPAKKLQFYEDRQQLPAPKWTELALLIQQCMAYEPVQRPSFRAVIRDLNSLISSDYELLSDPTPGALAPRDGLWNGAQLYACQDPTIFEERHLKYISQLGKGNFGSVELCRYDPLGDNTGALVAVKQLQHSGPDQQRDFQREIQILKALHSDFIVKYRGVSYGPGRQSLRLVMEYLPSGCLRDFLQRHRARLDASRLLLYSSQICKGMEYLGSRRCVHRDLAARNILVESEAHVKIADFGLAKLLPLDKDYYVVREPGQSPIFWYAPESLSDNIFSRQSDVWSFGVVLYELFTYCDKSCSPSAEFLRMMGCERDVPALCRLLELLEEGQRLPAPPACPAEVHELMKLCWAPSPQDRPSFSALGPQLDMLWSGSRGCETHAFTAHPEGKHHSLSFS

[11] = molecular target: Mitogen-activated protein kinase kinase kinase kinase 4 (Homo sapiens, UniProt O95819); test: Selectivity interaction (KinomeScan (DiscoverX)) EUB0000666a MAP4K4; conditions: at 10 µM
Sequence of Mitogen-activated protein kinase kinase kinase kinase 4 (O95819 2-1239 limits assumed): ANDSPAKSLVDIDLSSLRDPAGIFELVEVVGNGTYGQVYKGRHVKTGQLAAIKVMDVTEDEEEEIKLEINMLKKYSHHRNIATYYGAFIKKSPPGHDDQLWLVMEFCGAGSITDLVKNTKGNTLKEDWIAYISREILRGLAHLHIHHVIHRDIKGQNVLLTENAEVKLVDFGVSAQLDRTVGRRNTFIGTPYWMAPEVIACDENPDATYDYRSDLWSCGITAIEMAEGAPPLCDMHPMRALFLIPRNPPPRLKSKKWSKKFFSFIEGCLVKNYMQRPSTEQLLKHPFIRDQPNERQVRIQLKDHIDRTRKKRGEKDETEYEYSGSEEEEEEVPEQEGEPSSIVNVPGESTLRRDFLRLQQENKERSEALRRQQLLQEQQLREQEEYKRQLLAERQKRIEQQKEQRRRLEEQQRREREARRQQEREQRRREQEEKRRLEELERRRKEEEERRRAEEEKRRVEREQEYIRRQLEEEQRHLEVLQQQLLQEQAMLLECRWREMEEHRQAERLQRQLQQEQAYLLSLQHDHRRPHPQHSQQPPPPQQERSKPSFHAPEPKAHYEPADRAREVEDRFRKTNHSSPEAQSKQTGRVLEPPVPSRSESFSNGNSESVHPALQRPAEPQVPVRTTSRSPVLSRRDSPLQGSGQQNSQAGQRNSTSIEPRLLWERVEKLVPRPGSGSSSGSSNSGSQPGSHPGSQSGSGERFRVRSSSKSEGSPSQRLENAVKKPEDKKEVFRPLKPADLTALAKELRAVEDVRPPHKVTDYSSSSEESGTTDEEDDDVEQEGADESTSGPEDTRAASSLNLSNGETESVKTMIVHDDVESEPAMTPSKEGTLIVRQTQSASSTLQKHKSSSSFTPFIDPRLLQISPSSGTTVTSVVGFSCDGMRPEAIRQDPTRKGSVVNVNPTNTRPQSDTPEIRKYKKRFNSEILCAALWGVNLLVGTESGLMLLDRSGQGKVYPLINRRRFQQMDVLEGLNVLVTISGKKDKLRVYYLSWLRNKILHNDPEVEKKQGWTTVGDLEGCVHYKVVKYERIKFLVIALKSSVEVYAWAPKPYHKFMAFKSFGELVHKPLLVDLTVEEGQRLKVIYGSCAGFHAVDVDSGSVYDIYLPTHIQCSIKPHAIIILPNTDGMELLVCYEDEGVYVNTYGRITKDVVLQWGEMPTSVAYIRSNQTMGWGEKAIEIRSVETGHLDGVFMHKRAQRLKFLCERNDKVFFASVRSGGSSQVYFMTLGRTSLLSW

Sequence of Serine/threonine-protein kinase Nek6 (Homo sapiens) (Q9HC98 whole entry): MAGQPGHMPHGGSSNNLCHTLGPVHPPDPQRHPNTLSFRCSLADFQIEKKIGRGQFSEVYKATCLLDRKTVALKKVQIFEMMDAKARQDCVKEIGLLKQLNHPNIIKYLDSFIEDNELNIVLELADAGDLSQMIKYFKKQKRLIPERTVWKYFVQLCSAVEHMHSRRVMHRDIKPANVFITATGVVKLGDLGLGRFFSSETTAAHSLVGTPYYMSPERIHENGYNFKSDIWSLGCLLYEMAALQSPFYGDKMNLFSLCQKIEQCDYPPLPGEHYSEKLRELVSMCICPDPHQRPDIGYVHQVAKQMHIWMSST
Sequence of Epidermal growth factor receptor (Homo sapiens), P00533 [UNDEFINED MUTATION] (P00533 whole entry, looked up, change not shown): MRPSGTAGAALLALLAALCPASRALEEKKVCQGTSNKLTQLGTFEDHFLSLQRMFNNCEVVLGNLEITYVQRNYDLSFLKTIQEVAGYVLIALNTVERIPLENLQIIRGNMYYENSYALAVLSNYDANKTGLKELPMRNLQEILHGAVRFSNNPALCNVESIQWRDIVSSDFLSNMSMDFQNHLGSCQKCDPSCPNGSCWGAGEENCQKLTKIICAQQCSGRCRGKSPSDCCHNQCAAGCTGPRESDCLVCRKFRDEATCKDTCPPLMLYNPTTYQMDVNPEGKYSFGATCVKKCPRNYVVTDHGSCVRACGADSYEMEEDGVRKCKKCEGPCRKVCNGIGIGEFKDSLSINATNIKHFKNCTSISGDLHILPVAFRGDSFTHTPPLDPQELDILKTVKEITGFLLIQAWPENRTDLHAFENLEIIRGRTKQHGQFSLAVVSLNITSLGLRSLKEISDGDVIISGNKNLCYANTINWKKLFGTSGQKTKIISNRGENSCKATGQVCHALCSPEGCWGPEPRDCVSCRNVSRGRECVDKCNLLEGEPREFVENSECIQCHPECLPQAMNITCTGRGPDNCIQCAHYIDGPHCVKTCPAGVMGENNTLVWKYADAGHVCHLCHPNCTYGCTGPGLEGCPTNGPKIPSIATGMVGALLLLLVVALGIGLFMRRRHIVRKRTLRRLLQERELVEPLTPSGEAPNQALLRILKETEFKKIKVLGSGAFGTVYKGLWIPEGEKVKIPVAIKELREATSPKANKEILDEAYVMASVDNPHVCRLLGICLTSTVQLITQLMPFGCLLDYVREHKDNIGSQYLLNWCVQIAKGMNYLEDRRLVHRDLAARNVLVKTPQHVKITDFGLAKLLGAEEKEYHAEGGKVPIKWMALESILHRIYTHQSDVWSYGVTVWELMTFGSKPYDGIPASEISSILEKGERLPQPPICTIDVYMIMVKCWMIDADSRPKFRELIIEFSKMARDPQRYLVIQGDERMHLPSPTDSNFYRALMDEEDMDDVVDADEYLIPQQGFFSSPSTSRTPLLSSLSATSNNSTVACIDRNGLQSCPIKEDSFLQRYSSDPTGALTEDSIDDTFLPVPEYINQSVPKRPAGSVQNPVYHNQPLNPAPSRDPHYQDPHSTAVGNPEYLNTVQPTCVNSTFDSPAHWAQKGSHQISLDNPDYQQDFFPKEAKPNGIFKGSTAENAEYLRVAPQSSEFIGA
Sequence of Ribosomal protein S6 kinase alpha-5 (Homo sapiens) (O75582 whole entry, looked up, canonical isoform): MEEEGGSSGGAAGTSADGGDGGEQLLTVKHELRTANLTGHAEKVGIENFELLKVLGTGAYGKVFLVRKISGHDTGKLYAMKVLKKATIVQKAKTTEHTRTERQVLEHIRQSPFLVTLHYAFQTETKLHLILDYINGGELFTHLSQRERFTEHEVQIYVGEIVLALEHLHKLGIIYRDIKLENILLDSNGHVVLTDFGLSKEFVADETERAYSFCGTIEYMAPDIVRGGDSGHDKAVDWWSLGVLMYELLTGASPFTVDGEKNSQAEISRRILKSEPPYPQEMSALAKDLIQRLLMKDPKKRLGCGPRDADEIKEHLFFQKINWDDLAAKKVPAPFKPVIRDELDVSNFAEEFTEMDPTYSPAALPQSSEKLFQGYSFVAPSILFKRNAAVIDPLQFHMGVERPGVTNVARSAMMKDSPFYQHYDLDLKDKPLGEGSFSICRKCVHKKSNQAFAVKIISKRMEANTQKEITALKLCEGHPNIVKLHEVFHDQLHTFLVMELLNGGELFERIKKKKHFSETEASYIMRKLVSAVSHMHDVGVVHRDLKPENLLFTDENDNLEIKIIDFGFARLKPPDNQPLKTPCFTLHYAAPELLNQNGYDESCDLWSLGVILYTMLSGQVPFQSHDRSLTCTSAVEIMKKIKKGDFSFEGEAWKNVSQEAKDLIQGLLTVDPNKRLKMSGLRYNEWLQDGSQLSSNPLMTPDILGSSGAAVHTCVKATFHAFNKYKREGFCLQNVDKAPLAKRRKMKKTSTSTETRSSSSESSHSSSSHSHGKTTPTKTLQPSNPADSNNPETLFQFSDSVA
Sequence of Mitotic checkpoint serine/threonine-protein kinase BUB1 (O43683 whole entry, looked up): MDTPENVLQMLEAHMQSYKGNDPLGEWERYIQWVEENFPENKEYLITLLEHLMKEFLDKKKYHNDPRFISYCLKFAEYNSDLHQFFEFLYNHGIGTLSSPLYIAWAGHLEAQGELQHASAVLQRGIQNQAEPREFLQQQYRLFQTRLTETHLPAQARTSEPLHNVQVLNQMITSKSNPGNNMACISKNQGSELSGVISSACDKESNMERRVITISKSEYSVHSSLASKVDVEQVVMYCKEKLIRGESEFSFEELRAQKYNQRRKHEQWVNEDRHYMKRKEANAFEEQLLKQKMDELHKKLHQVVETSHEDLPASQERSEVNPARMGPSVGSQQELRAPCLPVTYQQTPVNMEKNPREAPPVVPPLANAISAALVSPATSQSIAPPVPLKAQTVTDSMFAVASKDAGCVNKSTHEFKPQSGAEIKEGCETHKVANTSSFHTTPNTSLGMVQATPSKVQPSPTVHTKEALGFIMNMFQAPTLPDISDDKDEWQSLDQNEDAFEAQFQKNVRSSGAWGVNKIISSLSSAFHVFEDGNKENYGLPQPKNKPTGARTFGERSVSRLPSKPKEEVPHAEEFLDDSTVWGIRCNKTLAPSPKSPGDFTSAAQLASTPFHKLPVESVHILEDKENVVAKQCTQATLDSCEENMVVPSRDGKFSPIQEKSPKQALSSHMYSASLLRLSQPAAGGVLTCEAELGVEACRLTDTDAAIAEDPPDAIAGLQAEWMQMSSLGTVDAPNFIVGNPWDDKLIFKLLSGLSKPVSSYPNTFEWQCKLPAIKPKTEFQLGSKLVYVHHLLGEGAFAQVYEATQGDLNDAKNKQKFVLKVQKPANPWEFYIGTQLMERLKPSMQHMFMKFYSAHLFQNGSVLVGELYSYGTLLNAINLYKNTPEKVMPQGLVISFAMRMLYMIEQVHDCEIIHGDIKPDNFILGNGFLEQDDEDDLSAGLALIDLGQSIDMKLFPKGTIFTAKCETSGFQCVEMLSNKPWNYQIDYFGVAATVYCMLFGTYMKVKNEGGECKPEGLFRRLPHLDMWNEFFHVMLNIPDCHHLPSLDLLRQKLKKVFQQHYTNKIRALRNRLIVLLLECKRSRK
Sequence of Mitogen-activated protein kinase 14 (Q16539 whole entry): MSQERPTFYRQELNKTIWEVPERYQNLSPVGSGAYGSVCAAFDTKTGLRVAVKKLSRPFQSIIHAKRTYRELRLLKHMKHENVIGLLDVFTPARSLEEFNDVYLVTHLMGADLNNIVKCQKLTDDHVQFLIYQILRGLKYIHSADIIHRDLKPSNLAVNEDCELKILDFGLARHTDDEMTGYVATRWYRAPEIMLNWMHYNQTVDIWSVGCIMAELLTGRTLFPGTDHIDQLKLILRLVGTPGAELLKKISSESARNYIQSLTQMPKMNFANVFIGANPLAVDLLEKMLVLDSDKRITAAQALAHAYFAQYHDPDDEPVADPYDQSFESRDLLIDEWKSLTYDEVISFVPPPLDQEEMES

Cc1cc([C@@H](C)Nc2ccccc2C(=O)O)c2nc(N3CCOCC3)cc(=O)n2c1 [AZD-6482]
% of control [1]: 93% | % of control [2]: 88%

CN(C)C/C=C/C(=O)Nc1ccc(C(=O)N2CCCC(Nc3ncc(Cl)c(-c4c[nH]c5ccccc45)n3)C2)cc1 (stereo unspecified)
% of control [3]: 96%

Cn1cc(-n2cnc3c(NCc4nc5cc(Cl)c(Cl)cc5[nH]4)nc(N4CCOCC4)nc32)cn1
% of control [4]: -3.84% | % of control [5]: 3.78%

CC(=O)c1cc(-c2ccccc2OCC2CC2)c2ncccn12
% of control [6]: 81%

COc1cc(N(C)c2ccnc3ccc(C(F)(F)F)cc23)cc(OC)c1OC
% binding [7]: 85%

Nc1cnc(N2CCc3cc(S(=O)(=O)Nc4c(F)cc(Cl)cc4F)cc(N4CCCC4=O)c32)nc1 [TP-020n]
% of control [8]: 100%

C=CC(=O)Nc1cc(-n2c(=O)ccc3cnc4ccc(-c5ccc(NS(C)(=O)=O)cc5)cc4c32)ccc1C
% of control [9]: 51%

O[C@H]1CC[C@H](Nc2ncc3nc(Nc4c(F)cc(F)cc4F)n([C@H]4CCOC4)c3n2)CC1
% of control [10]: 90%

O=C(NOC[C@H](O)CO)c1ccc(F)c(F)c1Nc1ccc(I)cc1F
% of control [11]: 69%
